The assay deals with human Nav1.7 (Homo sapiens (Human), UniProt Q15858). The assay is described as follows: FLIPR sodium dye assay (CoroNa Green AM Na+ dye, primary fluorescence assay). It counts as cell-based. As to conditions: recombinant Nav1.7/HEK293 cells. In outline: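 HEK293 cells stably expressing human Nav1.7 α subunit (no β/γ subunits), loaded with 5 μM CoroNa Green Na+ dye in HEPES-buffered Hanks-type saline, pH 7.3. Na+ influx stimulated by 100 μM veratridine plus 10 μg/mL Leiurus scorpion venom; compounds tested at 20 μM down to 0.001 μM (10 points, 0.2% DMSO).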
Sequence of human Nav1.7 (Q15858 other isoform, or with tags, fused parts or gaps): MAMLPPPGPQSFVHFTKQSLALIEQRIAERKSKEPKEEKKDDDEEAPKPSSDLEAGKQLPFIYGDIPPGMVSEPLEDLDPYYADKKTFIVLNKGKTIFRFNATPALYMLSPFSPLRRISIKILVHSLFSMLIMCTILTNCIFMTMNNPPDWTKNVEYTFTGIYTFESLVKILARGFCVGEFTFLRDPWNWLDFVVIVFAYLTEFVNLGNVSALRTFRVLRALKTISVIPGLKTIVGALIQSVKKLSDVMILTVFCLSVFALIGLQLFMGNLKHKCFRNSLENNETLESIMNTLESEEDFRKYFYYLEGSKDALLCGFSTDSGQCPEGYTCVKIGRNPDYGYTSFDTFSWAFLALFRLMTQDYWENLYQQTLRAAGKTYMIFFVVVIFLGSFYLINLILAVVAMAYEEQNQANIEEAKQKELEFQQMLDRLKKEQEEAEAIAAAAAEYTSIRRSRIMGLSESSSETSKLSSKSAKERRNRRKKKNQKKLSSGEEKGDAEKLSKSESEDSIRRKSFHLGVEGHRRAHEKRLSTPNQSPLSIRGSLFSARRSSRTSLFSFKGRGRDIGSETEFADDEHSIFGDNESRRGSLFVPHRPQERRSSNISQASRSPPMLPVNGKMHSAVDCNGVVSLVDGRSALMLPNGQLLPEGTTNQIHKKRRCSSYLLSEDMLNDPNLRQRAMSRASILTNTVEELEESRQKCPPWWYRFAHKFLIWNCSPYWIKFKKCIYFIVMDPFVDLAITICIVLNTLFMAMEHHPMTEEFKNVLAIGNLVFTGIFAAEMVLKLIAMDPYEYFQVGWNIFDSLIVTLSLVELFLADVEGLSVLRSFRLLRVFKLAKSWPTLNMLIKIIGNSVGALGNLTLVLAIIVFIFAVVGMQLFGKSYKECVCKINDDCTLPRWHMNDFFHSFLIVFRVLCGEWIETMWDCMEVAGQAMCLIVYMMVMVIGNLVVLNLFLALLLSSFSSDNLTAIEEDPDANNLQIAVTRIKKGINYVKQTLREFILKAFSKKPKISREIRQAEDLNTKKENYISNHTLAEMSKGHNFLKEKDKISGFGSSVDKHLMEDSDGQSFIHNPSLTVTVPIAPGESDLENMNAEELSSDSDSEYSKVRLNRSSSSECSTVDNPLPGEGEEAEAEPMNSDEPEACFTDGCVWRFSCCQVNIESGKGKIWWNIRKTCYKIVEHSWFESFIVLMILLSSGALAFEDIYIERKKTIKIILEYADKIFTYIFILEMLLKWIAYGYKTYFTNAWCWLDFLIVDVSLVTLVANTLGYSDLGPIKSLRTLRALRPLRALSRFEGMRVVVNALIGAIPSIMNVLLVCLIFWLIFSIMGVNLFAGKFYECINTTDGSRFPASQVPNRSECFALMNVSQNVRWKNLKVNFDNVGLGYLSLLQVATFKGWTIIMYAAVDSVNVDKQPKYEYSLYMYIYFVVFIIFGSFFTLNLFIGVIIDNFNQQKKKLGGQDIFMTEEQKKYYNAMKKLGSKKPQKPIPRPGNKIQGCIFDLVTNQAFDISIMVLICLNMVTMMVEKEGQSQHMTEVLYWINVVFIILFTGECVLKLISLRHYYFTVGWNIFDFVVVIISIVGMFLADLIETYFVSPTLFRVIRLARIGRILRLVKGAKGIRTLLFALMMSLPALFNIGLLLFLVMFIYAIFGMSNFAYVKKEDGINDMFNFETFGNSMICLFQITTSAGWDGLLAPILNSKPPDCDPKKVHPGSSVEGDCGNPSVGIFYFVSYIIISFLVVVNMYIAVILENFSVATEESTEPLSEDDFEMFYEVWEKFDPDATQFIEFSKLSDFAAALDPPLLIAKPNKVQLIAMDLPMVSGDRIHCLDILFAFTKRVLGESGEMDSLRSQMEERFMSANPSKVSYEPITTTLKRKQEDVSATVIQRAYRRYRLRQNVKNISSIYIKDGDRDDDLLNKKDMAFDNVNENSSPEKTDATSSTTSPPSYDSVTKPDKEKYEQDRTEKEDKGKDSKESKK
In general, IC50 refers to the point on the concentration scale where inhibition reaches its midpoint. `CCN(C)Cc1cc(C(F)(F)F)ccc1Oc1ccc(-c2cccc(C(N)=O)n2)cc1` [compound 117, 6-(4-(2-((ethyl(methyl)amino)methyl)-4-(trifluoromethyl)phenoxy)phenyl) picolinamide]: the half-maximal inhibitory concentration (IC50) is 0.066 ± 0.007 µM. The value for `CCN(CC)Cc1cc(C(F)(F)F)ccc1Oc1ccc(-c2cccc(C(N)=O)n2)cc1` [compound 118, 6-(4-(2-((diethylamino)methyl)-4-(trifluoromethyl)phenoxy)phenyl) picolinamide] was 0.118 ± 0.012 µM. For `CCN(CCO)Cc1cc(C(F)(F)F)ccc1Oc1ccc(-c2cccc(C(N)=O)n2)cc1` [compound 119, 6-(4-(2-((ethyl(2-hydroxyethyl)amino)methyl)-4-(trifluoromethyl)phenoxy)phenyl) picolinamide] the value was 0.59 ± 0.092 µM; for `CCN(CCN(C)C)Cc1cc(C(F)(F)F)ccc1Oc1ccc(-c2cccc(C(N)=O)n2)cc1` [compound 120, 6-(4-(2-(((2-(dimethylamino)ethyl)(ethyl)amino)methyl)-4-(trifluoromethyl)phenoxy)phenyl) picolinamide], 0.578 ± 0.098 µM; for `NC(=O)c1cccc(-c2ccc(Oc3ccc(C(F)(F)F)cc3CN3CCCC(C(N)=O)C3)cc2)n1` (centres unmarked) [compound 121, 6-(4-(2-((3-carbamoylpiperidin-1-yl)methyl)-4-(trifluoromethyl)phenoxy)phenyl) picolinamide], 0.716 ± 0.09 µM. As to `COC(=O)c1cccc(-c2ccc(Oc3ccc(C(F)(F)F)cc3C(O)C#N)cc2)n1` (centres unmarked) [compound 144, methyl 6-(4-(2-(cyano(hydroxy)methyl)-4-(trifluoromethyl)phenoxy)phenyl) picolinate], the half-inhibitory concentration (IC50) came to 3.79 ± 0.377 µM. For `N#CC(N)c1cc(C(F)(F)F)ccc1Oc1ccc(-c2cccc(C(N)=O)n2)cc1` (centres unmarked) [compound 145, 6-(4-(2-(amino(cyano)methyl)-4-(trifluoromethyl)phenoxy)phenyl) picolinamide] the value was 3.34 ± 0.452 µM; for `NC(=O)c1cccc(-c2ccc(Oc3ccc(C(F)(F)F)cc3/C=C3\SC(=O)NC3=O)cc2)n1` [compound 155, (Z)-6-(4-(2-((2,4-dioxothiazolidin-5-ylidene)methyl)-4-(trifluoromethyl)phenoxy)phenyl) picolinamide], greater than 20 µM; for `OC[C@@H](O)c1cccc(-c2ccc(Oc3ccc(F)cc3C(O)C(F)(F)F)cc2)n1` (stereo partly drawn) [compound 156, (1S)-1-(6-(4-(4-fluoro-2-(2,2,2-trifluoro-1-hydroxyethyl)-phenoxy)phenyl)pyridin-2-yl)ethane-1,2-diol], 1.29 ± 0.182 µM. The value for `NC(=O)c1cccc(-c2ccc(Oc3ccc(C(F)(F)F)cc3C(=O)C(=O)N3CCCC3)cc2)n1` [compound 157, 6-(4-(2-(2-oxo-2-(pyrrolidin-1-yl)acetyl)-4-(trifluoromethyl)-phenoxy)phenyl)picolinamide] was 2.71 ± 0.235 µM; that for `NC(=O)c1cccc(-c2ccc(Oc3ccc(C(F)(F)F)cc3C(O)C(=O)N3CCCC3)cc2)n1` (centres unmarked) [compound 158, 6-(4-(2-(1-hydroxy-2-oxo-2-(pyrrolidin-1-yl)ethyl)-4-(trifluoromethyl)phenoxy)phenyl) picolinamide] was 0.214 ± 0.029 µM; that for `NC(=O)c1cccc(-c2ccc(Oc3ccc(C(F)(F)F)cc3C(=O)O)cc2)n1` [compound 159, 2-(4-(6-carbamoylpyridin-2-yl)phenoxy)-5-(trifluoro-methyl)benzoic acid] was 1.26 ± 0.135 µM. For `NC(=O)c1cccc(-c2ccc(Oc3ccc(C(F)(F)F)cc3C(=O)N3CCCC3)cc2)n1` [compound 160, 6-(4-(2-(pyrrolidine-1-carbonyl)-4-(trifluoromethyl)phenoxy)phenyl)picolinamide] the value was 2.85 ± 0.698 µM; for `CN(CCO)C(=O)c1cc(C(F)(F)F)ccc1Oc1ccc(-c2cccc(C(N)=O)n2)cc1` [compound 161, 6-(4-(2-((2-hydroxyethyl)-(methyl)carbamoyl)-4-(trifluoromethyl)phenoxy)phenyl) picolinamide], greater than 20 µM.

Values taken from patent US10005768B2, “Carboxamide derivatives and use thereof” (Purdue Pharma L.P., priority 2013, dated 2018).
